Assay results from patent US10968222B2, “2-azabicyclo hexane JAK inhibitor compound” (THERAVANCE BIOPHARMA R&D IP, LLC, priority 2018, dated 2021).

Legend:
JAK2 = target: T1, JAK2 (Homo sapiens, UniProt O60674); assay: Biochemical JAK kinase assay (LanthaScreen), JAK2; conditions: converted from pIC50 by Cheng-Prusoff; 3 μM ATP; read-out: JAK 2 pKi (converted)
T1 construct: GST; purchased Life Technologies
Protocol: A panel of four LanthaScreen JAK biochemical assays (JAK1, 2, 3 and Tyk2) were carried in a common kinase reaction buffer (50 mM HEPES, pH 7.5, 0.01% Brij-35, 10 mM MgCl2, and 1 mM EGTA). Recombinant GST-tagged JAK enzymes and a GFP-tagged STAT1 peptide substrate were obtained from Life Technologies.
Serially diluted compound was pre-incubated with each of the four JAK enzymes and the substrate in white 384-well microplates (Corning) at ambient temperature for 1 h. ATP was subsequently added to initiate the kinase reactions in 10 μL total volume, with 1% DMSO. […] The plates were allowed to incubate at ambient temperature for 1 h before being read on the EnVision reader (Perkin Elmer). Emission ratio signals (520 nm/495 nm) were recorded and utilized to calculate the percent inhibition values based on DMSO and background controls.
For dose-response analysis, percent inhibition data were plotted vs. compound concentrations, and IC50 values were determined from a 4-parameter robust fit model with the Prism software (GraphPad Software). Results were expressed as pIC50 (negative logarithm of IC50) and subsequently converted to pKi (negative logarithm of dissociation constant, Ki) using the Cheng-Prusoff equation.

SYK = target: T2, SYK (Homo sapiens, UniProt P43405); assay: Kinome screen, SYK; assay type: binding; conditions: screened at 1 μM
T2 construct: made in house; host or cells: E. coli BL21-derived host (T7 phage) or HEK-293 cells
Protocol: (§1) Compounds 1 and C-1 were screened against other kinases to evaluate their selectivity profile.
(§2) Kinase-tagged T7 phage strains were grown in parallel in 24-well blocks in an E. coli host derived from the BL21 strain. E. coli were grown to log-phase and infected with T7 phage from a frozen stock (multiplicity of infection=0.4) and incubated with shaking at 32° C. until lysis (90-150 minutes). The lysates were centrifuged (6,000×g) and filtered (0.2 μm) to remove cell debris. The remaining kinases were produced in HEK-293 cells and subsequently tagged with DNA for qPCR detection.
(§3) Streptavidin-coated magnetic beads were treated with biotinylated small molecule ligands for 30 minutes at room temperature to generate affinity resins for kinase assays. The liganded beads were blocked with excess biotin and washed with blocking buffer (SeaBlock (Pierce), 1% BSA, 0.05% Tween 20, 1 mM DTT) to remove unbound ligand and to reduce non-specific phage binding. Binding reactions were assembled by combining kinases, liganded affinity beads, and test compounds in 1× binding buffer (20% SeaBlock, 0.17×PBS, 0.05% Tween 20, 6 mM DTT). Test compounds were prepared as 40× stocks in 100% DMSO and directly diluted into the assay. All reactions were performed in polypropylene 384-well plates in a final volume of 0.04 ml. […] The kinase concentration in the eluates was measured by qPCR. […]

[1] = system: IL-2/anti-CD3 stimulated IFNγ in human PBMCs; assay: Inhibition of IL-2/anti-CD3 stimulated IFNγ in human PBMCs; assay type: cell-based; conditions: PBMC, 24 h stimulation, ELISA, read-out: pIC50, inhibition of IL-2/anti-CD3 stimulated IFNγ (converted)
Protocol: The potency of the test compound for inhibition of interleukin-2 (IL-2)/anti-CD3 stimulated interferon gamma (IFNγ) was measured in human peripheral blood mononuclear cells (PBMCs) isolated from human whole blood (Stanford Blood Center). Because IL-2 signals through JAK, this assay provides a measure of JAK cellular potency.
(1) Human peripheral blood mononuclear cells (PBMC) were isolated from human whole blood of healthy donors using a ficoll gradient. Cells were cultured in a 37° C., 5% CO2 humidified incubator in RPMI (Life Technologies) supplemented with 10% Heat Inactivated Fetal Bovine Serum (FBS, Life Technologies), 2 mM Glutamax (Life Technologies), 25 mM HEPES (Life Technologies) and 1× Pen/Strep (Life Technologies). Cells were seeded at 200,000 cells/well in media (50 μL) and cultured for 1 h. The compound was serially diluted in DMSO and then diluted another 500-fold (to a 2× final assay concentration) in media. […]
(2) After cytokine stimulation, cells were centrifuged at 500 g for 5 min and supernatants removed and frozen at −80° C. To determine the inhibitory potency of test compounds in response to IL-2/anti-CD3, supernatant IFNγ concentrations were measured via ELISA (R&D Systems). IC50 values were determined from analysis of the inhibition curves of concentration of IFNγ vs compound concentration. Data are expressed as pIC50 (negative decadic logarithm IC50) values.

SLK = target: T3, SLK (Homo sapiens, UniProt Q9H2G2); assay: Kinome screen, SLK; assay type: binding; conditions: screened at 1 μM
T3 construct: made in house; host or cells: E. coli BL21-derived host (T7 phage) or HEK-293 cells
Protocol: as §1, §2, §3

EPHB6 = target: T4, EPHB6 (Homo sapiens, UniProt O15197); assay: Kinome screen, EPHB6; assay type: binding; conditions: screened at 1 μM
T4 construct: made in house; host or cells: E. coli BL21-derived host (T7 phage) or HEK-293 cells
Protocol: as §1, §2, §3

CSF1R = target: T5, CSF1R (Homo sapiens, UniProt P07333); assay: Kinome screen, CSF1R; assay type: binding; conditions: screened at 1 μM
T5 construct: made in house; host or cells: E. coli BL21-derived host (T7 phage) or HEK-293 cells
Protocol: as §1, §2, §3

T5 sequence (P07333 20-972): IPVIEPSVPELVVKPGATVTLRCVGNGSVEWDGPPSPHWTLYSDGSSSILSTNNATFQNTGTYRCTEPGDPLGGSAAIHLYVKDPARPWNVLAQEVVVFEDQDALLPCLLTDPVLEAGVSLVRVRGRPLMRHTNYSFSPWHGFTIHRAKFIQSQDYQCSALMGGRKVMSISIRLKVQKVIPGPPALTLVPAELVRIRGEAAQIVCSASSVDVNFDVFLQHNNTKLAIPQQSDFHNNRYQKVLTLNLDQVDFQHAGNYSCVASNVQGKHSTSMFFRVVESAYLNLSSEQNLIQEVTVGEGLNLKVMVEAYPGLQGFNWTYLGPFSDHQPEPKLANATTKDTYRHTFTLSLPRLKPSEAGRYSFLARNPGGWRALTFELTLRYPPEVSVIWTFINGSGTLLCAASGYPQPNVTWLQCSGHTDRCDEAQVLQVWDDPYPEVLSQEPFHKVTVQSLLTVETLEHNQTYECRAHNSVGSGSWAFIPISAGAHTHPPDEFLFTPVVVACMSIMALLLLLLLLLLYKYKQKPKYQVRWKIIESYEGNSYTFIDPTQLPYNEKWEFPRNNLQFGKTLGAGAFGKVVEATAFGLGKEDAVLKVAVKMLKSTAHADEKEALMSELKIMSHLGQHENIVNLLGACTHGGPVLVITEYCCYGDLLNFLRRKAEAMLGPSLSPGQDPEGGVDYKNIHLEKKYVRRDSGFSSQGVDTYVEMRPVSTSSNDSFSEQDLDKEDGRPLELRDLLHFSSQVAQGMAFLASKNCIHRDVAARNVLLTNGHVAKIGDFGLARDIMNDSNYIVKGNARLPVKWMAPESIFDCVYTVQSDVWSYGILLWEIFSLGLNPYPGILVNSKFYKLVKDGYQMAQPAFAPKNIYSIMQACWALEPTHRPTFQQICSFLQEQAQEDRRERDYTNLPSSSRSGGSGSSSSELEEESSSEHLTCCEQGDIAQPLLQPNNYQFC
T1 sequence (O60674 whole entry): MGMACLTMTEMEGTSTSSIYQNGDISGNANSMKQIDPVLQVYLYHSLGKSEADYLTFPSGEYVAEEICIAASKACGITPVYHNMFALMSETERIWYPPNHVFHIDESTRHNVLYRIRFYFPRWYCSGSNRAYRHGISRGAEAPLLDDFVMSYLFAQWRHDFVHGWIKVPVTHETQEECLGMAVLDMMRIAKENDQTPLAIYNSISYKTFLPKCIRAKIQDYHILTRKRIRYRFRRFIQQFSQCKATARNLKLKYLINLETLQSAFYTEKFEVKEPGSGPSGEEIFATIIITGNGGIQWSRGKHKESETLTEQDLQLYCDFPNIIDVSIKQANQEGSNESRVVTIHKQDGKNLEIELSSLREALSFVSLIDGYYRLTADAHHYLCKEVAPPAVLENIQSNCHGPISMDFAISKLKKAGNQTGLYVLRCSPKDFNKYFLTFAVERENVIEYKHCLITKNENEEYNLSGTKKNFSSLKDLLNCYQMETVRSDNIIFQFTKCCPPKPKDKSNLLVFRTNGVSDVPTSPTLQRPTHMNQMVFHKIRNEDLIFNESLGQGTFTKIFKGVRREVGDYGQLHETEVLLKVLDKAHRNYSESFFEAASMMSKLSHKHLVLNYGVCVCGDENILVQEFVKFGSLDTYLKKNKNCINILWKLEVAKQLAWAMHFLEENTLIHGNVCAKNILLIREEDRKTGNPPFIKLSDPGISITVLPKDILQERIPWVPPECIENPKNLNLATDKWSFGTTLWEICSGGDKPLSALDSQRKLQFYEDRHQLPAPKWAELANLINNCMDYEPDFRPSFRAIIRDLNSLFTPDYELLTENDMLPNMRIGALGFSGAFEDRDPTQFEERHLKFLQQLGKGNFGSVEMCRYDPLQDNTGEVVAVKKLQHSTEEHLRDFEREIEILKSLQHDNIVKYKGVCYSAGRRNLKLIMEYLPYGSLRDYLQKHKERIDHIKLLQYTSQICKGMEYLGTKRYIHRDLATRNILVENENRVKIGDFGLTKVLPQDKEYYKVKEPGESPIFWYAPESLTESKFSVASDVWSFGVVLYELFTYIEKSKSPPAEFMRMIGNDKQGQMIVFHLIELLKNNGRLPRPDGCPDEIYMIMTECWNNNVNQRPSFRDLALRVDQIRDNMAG
T3 sequence (Q9H2G2 whole entry): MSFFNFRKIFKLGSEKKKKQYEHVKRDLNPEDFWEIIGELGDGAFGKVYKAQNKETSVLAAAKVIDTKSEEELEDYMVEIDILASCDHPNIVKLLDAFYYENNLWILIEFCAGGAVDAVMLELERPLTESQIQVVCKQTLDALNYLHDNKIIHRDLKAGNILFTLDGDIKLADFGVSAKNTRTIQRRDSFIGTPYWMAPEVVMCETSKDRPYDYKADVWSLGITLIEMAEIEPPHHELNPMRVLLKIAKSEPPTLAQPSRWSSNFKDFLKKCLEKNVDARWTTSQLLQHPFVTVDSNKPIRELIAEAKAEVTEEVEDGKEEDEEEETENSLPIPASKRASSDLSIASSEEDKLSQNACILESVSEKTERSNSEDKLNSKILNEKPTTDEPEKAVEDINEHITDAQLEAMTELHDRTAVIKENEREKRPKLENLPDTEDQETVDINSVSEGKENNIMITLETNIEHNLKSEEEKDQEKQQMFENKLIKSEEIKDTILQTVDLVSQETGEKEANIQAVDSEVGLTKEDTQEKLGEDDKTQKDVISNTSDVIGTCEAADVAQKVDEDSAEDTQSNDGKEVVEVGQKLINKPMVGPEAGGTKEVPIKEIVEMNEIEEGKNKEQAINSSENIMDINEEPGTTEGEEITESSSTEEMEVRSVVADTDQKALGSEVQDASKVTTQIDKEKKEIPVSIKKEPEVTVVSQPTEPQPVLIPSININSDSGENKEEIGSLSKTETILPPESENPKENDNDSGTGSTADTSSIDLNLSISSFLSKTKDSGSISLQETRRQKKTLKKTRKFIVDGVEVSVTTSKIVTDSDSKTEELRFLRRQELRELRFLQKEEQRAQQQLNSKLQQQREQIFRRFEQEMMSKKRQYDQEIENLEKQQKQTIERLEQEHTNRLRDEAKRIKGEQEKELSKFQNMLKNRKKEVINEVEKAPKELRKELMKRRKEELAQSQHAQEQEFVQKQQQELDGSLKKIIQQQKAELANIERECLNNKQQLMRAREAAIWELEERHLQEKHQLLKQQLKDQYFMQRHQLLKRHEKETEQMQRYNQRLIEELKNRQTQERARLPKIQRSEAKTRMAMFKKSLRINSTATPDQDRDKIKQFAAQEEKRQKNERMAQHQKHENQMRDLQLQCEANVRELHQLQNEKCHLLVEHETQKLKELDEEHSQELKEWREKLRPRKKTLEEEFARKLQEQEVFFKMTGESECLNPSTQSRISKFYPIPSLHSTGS
T4 sequence (O15197 32-1021): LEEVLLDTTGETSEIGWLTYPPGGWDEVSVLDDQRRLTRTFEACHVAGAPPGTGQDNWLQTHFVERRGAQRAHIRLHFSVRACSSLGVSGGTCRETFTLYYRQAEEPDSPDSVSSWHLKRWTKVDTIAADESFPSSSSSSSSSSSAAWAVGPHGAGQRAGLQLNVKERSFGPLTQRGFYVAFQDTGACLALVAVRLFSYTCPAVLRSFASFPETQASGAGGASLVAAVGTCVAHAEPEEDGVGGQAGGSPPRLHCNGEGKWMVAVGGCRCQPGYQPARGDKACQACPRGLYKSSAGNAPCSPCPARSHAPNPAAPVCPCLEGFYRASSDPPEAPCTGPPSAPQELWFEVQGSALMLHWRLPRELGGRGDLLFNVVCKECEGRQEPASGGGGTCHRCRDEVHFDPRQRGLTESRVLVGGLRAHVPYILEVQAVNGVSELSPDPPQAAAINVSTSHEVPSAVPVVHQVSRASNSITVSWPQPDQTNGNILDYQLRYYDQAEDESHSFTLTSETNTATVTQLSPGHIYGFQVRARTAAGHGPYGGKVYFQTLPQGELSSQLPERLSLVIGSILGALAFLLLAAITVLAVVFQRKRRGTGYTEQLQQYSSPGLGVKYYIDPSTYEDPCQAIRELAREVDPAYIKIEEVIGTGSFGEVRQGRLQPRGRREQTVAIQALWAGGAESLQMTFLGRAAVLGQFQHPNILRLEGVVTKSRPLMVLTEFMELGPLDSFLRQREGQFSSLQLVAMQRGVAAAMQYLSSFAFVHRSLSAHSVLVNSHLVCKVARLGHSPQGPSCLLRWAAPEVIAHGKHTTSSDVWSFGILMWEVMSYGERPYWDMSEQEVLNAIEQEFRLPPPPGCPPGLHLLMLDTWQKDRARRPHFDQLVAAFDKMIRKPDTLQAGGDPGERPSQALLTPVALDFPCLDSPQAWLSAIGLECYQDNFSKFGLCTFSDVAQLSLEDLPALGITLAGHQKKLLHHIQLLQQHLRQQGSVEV

## CCc1cc(O)c(F)cc1-c1cc(F)c2c(-c3nc4c([nH]3)CCN(C(=O)[C@]35C[C@H]3CCN5)C4)n[nH]c2c1 [Compound 1, (1S,5R)-2-azabicyclo[3.1.0]hexan-1-yl(2-(6-(2-ethyl-5-fluoro-4-hydroxyphenyl)-4-fluoro-1H-indazol-3-yl)-6,7-dihydro-3H-imidazo[4,5-c]pyridin-5(4H)-yl)methanone]
JAK2
  Ki: 0.0631 nM
SYK
  inhibition at 1 µM: 44%
[1]
  IC50: 200 nM
SLK
  inhibition at 1 µM: 100%
EPHB6
  inhibition at 1 µM: 85%
CSF1R
  inhibition at 1 µM: 98%
